Patent US20020061862A1, “Inducible nitric oxide synthase for treatment of disease” (University of Pittsburgh of the Commonwealth System of …, priority 1992, published 2002)

Experiments:
[1] = system: sheep pulmonary artery endothelial cells (SPAEC); format: cell-based; settings: L-NMA 0.5 mM, BH4 100 μM
3T3-iNOS cells = experiment: NO2- production (iNOS activity) in transfected 3T3-iNOS cells; format: cell-based, murine; settings: MTX 12.5 μM
Experimental: Cells were passaged to 6 well plates at a density of 1×10^5 cells/well 24 h prior to transfection. For 3T3 cells, each well of cells was transfected with a mixture of 1 μg plasmid DNA and 6 μg of Lipofectamine (GIBCO) in OPTIMEM-I media for 5 h. For RSMC, a ratio of 1 μg DNA to 7 μl of Lipofectamine was used. Following the incubation period, the transfection solution was removed and normal growth medium replaced. The transfection efficiency was estimated by X-gal staining of pIEP-lacZ transfected cells. All studies were performed at 24-72 h post-transfection.
Twenty four hours following transfection, the cell medium was then replaced with fresh medium and the cells were cultured for an additional 24 h at which time the supernatants were assayed for accumulated NO2 using the Griess reaction (Geller, et al., 1993, Proc. Natl. Acad. Sci. USA: 90:522-526). Measurements were also performed in the presence of L-NMA (1 mM), BH4 (100 μM), and methotrexate (MTX 12.5 μM). The cells were lysed with 0.1 M NaOH and the protein concentration was quantified with the BCA protein assay. To assess the requirement for compression of GTPCH and iNOS in the same cell, 3T3 cells were transfected with either pIEPlacZ or pCIS-GTPCH. […] Cells were allowed to attach overnight and NO2− levels were measured 24 h later.

[2] = system: ecNOS mRNA and protein in SPAEC; experiment: Northern and Western blot for ecNOS expression in SPAEC; format: cell-based, sheep; settings: 1 mM, 6 h, versus SPAEC treated with the parent compound
Experimental: Aliquots (20 μg) of RNA were electrophoresed on a 0.9% agarose gel and blotted to GeneScreen (DuPontNEN; Boston, Mass.). After prehybridization, the membranes were hybridized to a DNA probe as described (Geller, et al., 1993, Proc. Natl. Acad. Sci. USA 90:522-526). A 2.3 kb human iNOS cDNA fragment served as the iNOS probe while a 4.1 kb human endothelial cNOS cDNA fragment served as the ecNOS probe. 18S rRNA served as a control for relative RNA loading.
The cells were lysed by three freeze-thaw cycles, and the cytosolic fraction was isolated by centrifugation at 100,000×g for 60 min at 4° C. as previously described (Luss, et al., 1994, Biochem. Biophys. Res. Comm. 204-2: 635-640). Protein concentrations were measured with the BCA protein assay (Pierce; Rockford, Ill.). For whole cell preparations, a similar procedure was performed without the centrifugation step.
Cell cytosols (100μg) were electrophoresed through an 8% SDS-polyacrylamide gel and transferred to nitrocellulose membranes (Schleicher Schuell; Keene, N.H.) as described (Laemmli, 1970, Nature 227: 680-685). […]

For `CNC(=N)NCCC[C@H](N)C(=O)O` [L-NMA, N^G-monomethyl-L-arginine], the “effect of agent added to culture medium on nitrogen oxide synthesis / NO2^− production of SPAEC/DFG-iNOS-Neo” value [1] was “inhibited”.
`CN(Cc1cnc2nc(N)nc(N)c2n1)c1ccc(C(=O)N[C@@H](CCC(=O)O)C(=O)O)cc1` [MTX, methotrexate] was tested, and the “reduction of iNOS activity recovered by BH4 supplementation” value (3T3-iNOS cells; 3T3-iNOS, FIG. 23) was “over 5 fold” and the “reduction of iNOS activity” value (3T3-iNOS cells; pCIS-GTPCH transfected 3T3iNOS cells) was 50%.
In the case of `CC(=O)N[C@H](C(=O)O)C(C)(C)SN=O` [SNAP, S-nitroso-N-acetyl-penicillamine], the “increase in ecNOS mRNA” value [2] is reported as 1.5 fold.
